Assay results reported in US20250304623A1, “PEPTIDES FOR INTRACELLULAR DELIVERY” (UNIVERSIDADE DE SANTIAGO DE COMPOSTELA, priority 2022, published 2025).
*: point of attachment. NHNH2 = NN*

Assays:
Format in all cases: cell-based
A549 cells = test: RLuc pDNA delivery, robotic library screening, A549
Experimental: (§1) Cells were seeded in a 96 well plate the day before the experiment at a concentration of 60,000 cell/mL (100 μL/w) in DMEM+10% FBS+1% Gln-Abt. For robotic library screening, the delivery of pDNA encoding for the expression of Renilla luciferase gene (RLuc, pRL-CMV (Promega, #E2261)) in six different cell lines was performed. Amphihilic molecule stock solutions in DMSO were diluted with DMEM and freshly mixed with pDNA stock solutions in DMEM prior to transfection experiments, to afford several complexes at different amphiphile concentration (2-10 μM) while maintaining a constant final pDNA concentration of 2 ng/μL. The mixture was shaken for 30 min at room temperature before the addition to the cells. The cell medium was aspirated, and cells were washed twice with PBS. Finally, 50 μL of the complex's solution were added to the cells and incubated for 4 h. After the incubation, the medium was replaced by 100 μL of fresh DMEM supplemented with 10% FBS. 72 hours after transfection the DMEM was removed, cells were washed once with HBSS and 90 μL of HBSS were added to each well. Cells were incubated at 37° C. for 30 minutes. Then basal luminescence levels were read in a plate reader. Immediately, 10 μL of coelenterazine h in HBSS were added to each well (5 μM final concentration) and cells were incubated at 37° C. for 10 minutes. Finally, the total luminescence measurement of the plates was performed. Amphiphile transfection efficiency was compared and normalized to Lipofectamine® 2000 efficiency (value of 1 in Tables 1-5 and 7; bold numbers). All experiments were done in triplicate.
(§2) Tables 1-7: RLuc (pDNA) or EGFP (mRNA) expression levels were normalized to Lipofectamine reagents (value=1) and expressed as fold-times signal increase. In the case of siRNA, the siRNA treated cells fluorescence was compared with siMOCK control fluorescence, while Cas9-RNP mediated knockout was measured against the fluorescence of untreated cells. In both siRNA and Cas9-RNP, values are expressed as % fluorescence reduction. Amphiphile concentration was 5 μM in all cases. All experiments were performed in triplicate.
(§3) Tables 8-13 show the mean (triplicates) luminescent intensity (RLU) measured after the transfection of RLuc pDNA by different amphiphiles at different concentrations in a variety of cell lines. Background luminescence values, accounted by untransfected control cells, were subtracted for processing.

ARPE19 cells = test: RLuc pDNA delivery, robotic library screening, ARPE19
HCT116 cells = test: RLuc pDNA delivery, robotic library screening, HCT116
Hek293 cells = test: RLuc pDNA delivery, robotic library screening, Hek293
Hela cells = test: RLuc pDNA delivery, robotic library screening, HeLa; settings: Hela
Experimental: as §1, with “Amphihilic molecule stock solutions in DMSO were diluted with DMEM and freshly mixed with pDNA stock solutions in DMEM prior to transfection experiments, to afford several complexes at different amphiphile concentration (2-10 μM) while maintaining a constant final pDNA concentration of 2 ng/μL.” left out
as §2, §3

HepG2 cells = test: RLuc pDNA delivery, robotic library screening, HepG2; settings: Oleyl
Experimental: as §1, §2, §3

In the case of “Ac-RK*RRK*K*R-NH2 (Ac-RK(NHNH2)RRK(NHNH2)K(NHNH2)R-NH2; not fully specified; printed as Ac-RK*RRK*K*R-NH2; also: K*2,K*5,K*6: native or modified lysine (ε-amide to a linker)) [7.3(L-R)]”, the “mean luminescent intensity (RLuc pDNA)” value (A549 cells; Oleyl, 5 μM) is reported as 13651 RLU, the “mean luminescent intensity (RLuc pDNA)” value (A549 cells; Palmitoleyl, 5 μM) is reported as 5366 RLU and the “mean luminescent intensity (RLuc pDNA)” value (A549 cells; Palmitoleyl, 15 μM) is reported as 12440 RLU. For the same substance, the “mean luminescent intensity (RLuc pDNA)” value (A549 cells; Petroselinyl, 15 μM) was 7194 RLU, the “mean luminescent intensity (RLuc pDNA)” value (ARPE19 cells; Myristoleyl, 5 μM) was 522 RLU and the “mean luminescent intensity (RLuc pDNA)” value (ARPE19 cells; Myristoleyl, 10 μM) was 20 RLU. The “mean luminescent intensity (RLuc pDNA)” value (ARPE19 cells; Myristoleyl, 15 μM) was 56 RLU, the “mean luminescent intensity (RLuc pDNA)” value (ARPE19 cells; Palmitoleyl, 5 μM) was 2987 RLU and the “mean luminescent intensity (RLuc pDNA)” value (ARPE19 cells; Petroselinyl, 5 μM) was 2177 RLU. The “mean luminescent intensity (RLuc pDNA)” value (HCT116 cells; Myristoleyl, 5 μM) was 7939 RLU, the “mean luminescent intensity (RLuc pDNA)” value (HCT116 cells; Myristoleyl, 10 μM) was −83 RLU and the “mean luminescent intensity (RLuc pDNA)” value (HCT116 cells; Myristoleyl, 15 μM) was −41 RLU. The “mean luminescent intensity (RLuc pDNA)” value (HCT116 cells; Palmitoleyl, 5 μM) was 22225 RLU, the “mean luminescent intensity (RLuc pDNA)” value (HCT116 cells; Palmitoleyl, 10 μM) was 41280 RLU and the “mean luminescent intensity (RLuc pDNA)” value (HCT116 cells; Petroselinyl, 5 μM) was 2832 RLU. The “mean luminescent intensity (RLuc pDNA)” value (HCT116 cells; Petroselinyl, 10 μM) was 9686 RLU, the “mean luminescent intensity (RLuc pDNA)” value (Hek293 cells; Myristoleyl, 5 μM) was 46216 RLU and the “mean luminescent intensity (RLuc pDNA)” value (Hek293 cells; Myristoleyl, 10 μM) was 51837 RLU. For the same substance, the “mean luminescent intensity (RLuc pDNA)” value (Hek293 cells; Myristoleyl, 15 μM) was 10351 RLU, the “mean luminescent intensity (RLuc pDNA)” value (Hek293 cells; Palmitoleyl, 5 μM) was 73751 RLU and the “mean luminescent intensity (RLuc pDNA)” value (Hek293 cells; Palmitoleyl, 10 μM) was 115755 RLU. The “mean luminescent intensity (RLuc pDNA)” value (Hek293 cells; Palmitoleyl, 15 μM) was 29282 RLU, the “mean luminescent intensity (RLuc pDNA)” value (Hek293 cells; Petroselinyl, 5 μM) was 9983 RLU and the “mean luminescent intensity (RLuc pDNA)” value (Hek293 cells; Petroselinyl, 10 μM) was 59396 RLU. The “mean luminescent intensity (RLuc pDNA)” value (Hek293 cells; Petroselinyl, 15 μM) was 8037 RLU, the “mean luminescent intensity (RLuc pDNA)” value (Hela cells; Myristoleyl, 5 μM) was 3647 RLU and the “mean luminescent intensity (RLuc pDNA)” value (Hela cells; Myristoleyl, 10 μM) was 2076 RLU. For the same substance, the “mean luminescent intensity (RLuc pDNA)” value (Hela cells; Myristoleyl, 15 μM) was 22 RLU, the “mean luminescent intensity (RLuc pDNA)” value (Hela cells; Palmitoleyl, 5 μM) was 62538 RLU and the “mean luminescent intensity (RLuc pDNA)” value (Hela cells; Palmitoleyl, 10 μM) was 25113 RLU. The “mean luminescent intensity (RLuc pDNA)” value (Hela cells; Palmitoleyl, 15 μM) was 3405 RLU, the “mean luminescent intensity (RLuc pDNA)” value (Hela cells; Petroselinyl, 5 μM) was 4972 RLU and the “mean luminescent intensity (RLuc pDNA)” value (HepG2 cells; 5 μM) was 1696 RLU. The “mean luminescent intensity (RLuc pDNA)” value (HepG2 cells; 10 μM) was 22303 RLU and the “mean luminescent intensity (RLuc pDNA)” value (HepG2 cells; 15 μM) was 6498 RLU.
